Test results: US20190241569A1, “3-(ARYL OR HETEROARYL) METHYLENEINDOLIN-2-ONE DERIVATIVES AS INHIBITORS OF CANCER STEM CELL PATHWAY KINASES FOR THE TREATMENT OF CANCER” (Boston Biomedical, Inc., priority 2013, published 2019)
Read-outs that look alike come from different tables or passages of the source.

Legend:
Assay type in all cases: cell-based
ACHN CSC = test: Cancer stem cells, Cell Titer-Glo 72 hours (Test Example 3)
FaDu CSC = test: as above; conditions: Homo sapiens, FaDu, 72 h
FaDu = test: Bulk cancer cells, Cell Titer-Glo 72 hours (Test Example 2); conditions: Homo sapiens
Description: (§1) Tubes of 3× drug (60 uM in 500 uL complete media) were prepared from 5 mM stock solutions in DMSO. […] To treat cells, 50 uL of drug from the dilution plate was removed and added to the cell plates. […] Cells were harvested 72 hours after drug addition using Cell Titer-Glo (Promega) and luminescence measured on a plate reader.

A549 CSC = test: Cancer stem cells, Cell Titer-Glo 72 hours (Test Example 3); conditions: Homo sapiens
ACHN = test: Bulk cancer cells, Cell Titer-Glo 72 hours (Test Example 2)
Description: as §1

A549 = test: as above; conditions: Homo sapiens
Description: as §1

SMILES | IC50 (ACHN CSC; Homo sapiens, ACHN, 72 h) [µM] | IC50 (FaDu CSC) [µM] | IC50 (FaDu) [µM] | IC50 (A549 CSC) [µM] | IC50 (ACHN; Homo sapiens, ACHN, 72 h) [µM] | IC50 (A549) [µM] | IC50 (ACHN CSC) [µM] | IC50 (ACHN) [µM]
CCN(CC)CCNC(=O)c1c(C)[nH]c(/C=C2\C(=O)Nc3cc(-c4csc(-c5ccccc5)n4)ccc32)c1C [Example 7] | 0.19 | 0.6 | 1.8 | 3.73 | – | – | – | –
Cc1[nH]c(/C=C2\C(=O)Nc3ccc(-c4ccc(-c5ccccc5)s4)cc32)c(C)c1C(=O)N1CCOCC1 [Example 11] | 0.23 | 2.47 | 21.1 | 11 | 12.8 | 10.1 | – | –
CCN(CC)CCNC(=O)c1c(C)[nH]c(/C=C2\C(=O)Nc3ccc(-c4csc(-c5ccc(C)cc5)n4)cc32)c1C [Example 102] | 0.69 | 3.4 | – | 10.5 | – | – | – | –
Cc1ccc(-c2nc(-c3ccc4c(c3)/C(=C/c3[nH]c(C)c(C(=O)NCCN5CCCC5)c3C)C(=O)N4)cs2)cc1 [Example 103] | 0.14 | 0.31 | 4.22 | 12.2 | 2.32 | 5.99 | – | –
CCN(CC)CCN(C)C(=O)c1c(C)[nH]c(/C=C2\C(=O)Nc3ccc(-c4csc(-c5ccccc5)n4)cc32)c1C [Example 129, (Z)-N-(2-(diethylamino)ethyl)-N,2,4-trimethyl-5-((2-oxo-5-(2-phenylthiazol-4-yl)indolin-3-ylidene)methyl)-1H-pyrrole-3-carboxamide] | 0.69 | 3.6 | 18.3 | 10.5 | 11.3 | 9.94 | – | –
COC(=O)c1c(C)[nH]c(/C=C2\C(=O)Nc3ccc(-c4csc(-c5ccncc5)n4)cc32)c1C [Example 145] | 6.16 | 6.74 | 18.6 | 4.8 | 12.6 | 9.61 | – | –
Cc1[nH]c(/C=C2\C(=O)Nc3ccc(-c4csc(-c5ccccc5)n4)cc32)c(C)c1S(=O)(=O)N1CCCC1 [Example 146] | 5.05 | 6.56 | 5.48 | – | 12.6 | 2.86 | – | –
Cc1[nH]c(/C=C2\C(=O)Nc3ccc(-c4csc(-c5ccccc5)n4)cc32)c(C)c1S(=O)(=O)N1CCOCC1 [Example 147] | 0.56 | 0.21 | 11.4 | 3.73 | 10.7 | 7.28 | – | –
CCN(CC)CCNC(=O)CCc1c(C)[nH]c(/C=C2\C(=O)Nc3ccc(-c4csc(-c5ccccc5)n4)cc32)c1C [Example 149] | 4.23 | 3.53 | 3.85 | 8.74 | 2.48 | 1.11 | – | –
O=C1Nc2ccc(-c3csc(-c4ccccc4)n3)cc2/C1=C/c1ncc[nH]1 [Example 150] | 2.91 | 2.5 | 7.57 | 2.31 | 1.44 | 17.2 | – | –
O=C1Nc2ccc(-c3csc(-c4ccncc4)n3)cc2/C1=C/c1cnc[nH]1 [Example 152] | 28.9 | 22.1 | 1.66 | 7.18 | 3.61 | 9.19 | – | –
O=C1Nc2ccc(-c3csc(-c4ccncc4)n3)cc2/C1=C/c1ncc[nH]1 [Example 153] | 9.21 | – | 3.42 | 2.6 | 0.29 | 14.8 | – | –
O=C1Nc2ccc(-c3csc(-c4ccccc4)n3)cc2/C1=C/c1cc2c([nH]1)CCCC2 [Example 155] | 2.52 | 4.09 | 20.2 | 1.42 | 34.6 | – | – | –
O=C1Nc2ccc(-c3csc(C4CCNCC4)n3)cc2/C1=C/c1cc2c([nH]1)CCCC2 [Example 157] | 2.68 | 12 | 21.1 | 22.1 | 18.8 | 9.39 | – | –
CCN(CC)CCNC(=O)c1cc(C)c(/C=C2\C(=O)Nc3ccc(-c4csc(-c5ccccc5)n4)cc32)[nH]1 [Example 165] | 4.04 | 3.13 | 11.4 | 26.7 | 14.9 | 4 | – | –
CCN(CC)CCNC(=O)CCc1c(C)[nH]c(/C=C2\C(=O)Nc3ccc(-c4csc(-c5ccncc5)n4)cc32)c1C [Example 167] | 1.24 | 4.57 | 28 | 35.7 | 7.42 | 10.1 | – | –
O=C1Nc2ccc(-c3csc(C4CCNCC4)n3)cc2/C1=C/c1cc2ccccc2[nH]1 [Example 168] | 0.1 | 0.76 | 5.16 | 2.04 | 4.12 | 5.55 | – | –
CCN(CC)CCNC(=O)c1c(C)[nH]c(/C=C2\C(=O)Nc3ccc(-c4cnc5cccnn45)cc32)c1C [Example 179] | 2.73 | 0.06 | 1.74 | 6.64 | 3.64 | 3.66 | – | –
CCN(CC)CCNC(=O)c1c(C)[nH]c(/C=C2\C(=O)Nc3ccc(-c4ccc5ccccc5n4)cc32)c1C [Example 186] | 0.33 | – | 0.92 | 1.51 | 2.74 | 1.8 | – | –
CCN(CC)CCNC(=O)c1c(C)[nH]c(/C=C2\C(=O)Nc3ccc(-c4csc(C(=O)O)c4)cc32)c1C [Example 202] | 1.28 | 14.1 | – | 14.1 | 7.74 | 7.79 | – | –
Cc1cc(C)c(/C=C2\C(=O)Nc3ccc(-c4ncccc4C)cc32)[nH]1 [Example 211] | 0.01 | 41.1 | – | – | 7.95 | 22.4 | – | –
Cc1ccc(-c2ccc3c(c2)/C(=C/c2[nH]c(C)cc2C)C(=O)N3)cn1 [Example 228] | – | – | – | 25.4 | – | – | 3.42 | 22.4
Cc1cc(C)c(/C=C2\C(=O)Nc3cc(-c4cnc5ccccc5n4)ccc32)[nH]1 [Example 242] | 2.54 | 8.8 | – | 5.83 | – | 18.2 | – | –
Cc1ccc(-c2ccc3c(c2)NC(=O)/C3=C\c2[nH]c(C)cc2C)cn1 [Example 244] | 4.55 | 3.61 | – | 23.7 | 22 | – | – | –
CCN(CC)CCNC(=O)c1c(C)[nH]c(/C=C2\C(=O)Nc3cc(-c4ccc(-c5ccccc5)nc4)ccc32)c1C [Example 249] | 0.21 | 1.12 | – | 3.59 | – | 14.8 | – | –
CCN(CC)CCNC(=O)c1c(C)[nH]c(/C=C2\C(=O)Nc3cc(-c4ccc5ccccc5n4)ccc32)c1C [Example 253] | 1.36 | 5.15 | 16.6 | 6.59 | – | 16.4 | – | –
CCN(CC)CCNC(=O)c1c(C)[nH]c(/C=C2\C(=O)Nc3cc(-c4nccc5ccccc45)ccc32)c1C [Example 255] | 1.91 | 24.4 | 9.12 | – | 6.51 | 7.14 | – | –
CCN(CC)CCNC(=O)c1c(C)[nH]c(/C=C2\C(=O)Nc3cc(-c4ccc(-c5ccccc5)cn4)ccc32)c1C [Example 256] | 2.88 | 1.18 | 19.8 | 4.93 | – | – | – | –
CCN(CC)CCNC(=O)c1c(C)[nH]c(/C=C2\C(=O)Nc3cc(-c4cnc5ccccc5c4)ccc32)c1C [Example 257] | 1.07 | 2.83 | 12.9 | 11.6 | – | 15.8 | – | –
CCN(CC)CCNC(=O)c1c(C)[nH]c(/C=C2\C(=O)Nc3ccc(-c4n[nH]c5c(N)cccc45)cc32)c1C [Example 268] | 30.9 | 28.4 | 7.09 | – | 12 | 11.6 | – | –
